Like-named read-outs stand apart in the source and are kept apart here.
System: NCI-60 standardized human tumor cell line panel
Test: cells
Assay type: cell-based
[1] = cell line A549/ATCC (LC:A549/ATCC), TMI sheet
[2] = cell line BT-549 (BR:BT-549), TMI sheet
[3] = cell line CCRF-CEM (LE:CCRF-CEM), TMI sheet
[4] = cell line COLO 205 (CO:COLO 205), TMI sheet
[5] = cell line EKVX (LC:EKVX), TMI sheet
[6] = cell line HCC-2998 (CO:HCC-2998), TMI sheet
[7] = cell line HCT-15 (CO:HCT-15), TMI sheet
[8] = cell line HCT-116 (CO:HCT-116), TMI sheet
[9] = cell line HL-60(TB) (LE:HL-60(TB)), TMI sheet
[10] = cell line HOP-62 (LC:HOP-62), TMI sheet
[11] = cell line HOP-92 (LC:HOP-92), TMI sheet
[12] = cell line HT29 (CO:HT29), TMI sheet
[13] = cell line K-562 (LE:K-562), TMI sheet
[14] = cell line KM12 (CO:KM12), TMI sheet
[15] = cell line LOX IMVI (ME:LOX IMVI), TMI sheet
[16] = cell line M14 (ME:M14), TMI sheet
[17] = cell line MALME-3M (ME:MALME-3M), TMI sheet
[18] = cell line MCF7 (BR:MCF7), TMI sheet
[19] = cell line MDA-MB-435 (ME:MDA-MB-435), TMI sheet
[20] = cell line MOLT-4 (LE:MOLT-4), TMI sheet
[21] = cell line NCI-H23 (LC:NCI-H23), TMI sheet
[22] = cell line NCI-H226 (LC:NCI-H226), TMI sheet
[23] = cell line RPMI-8226 (LE:RPMI-8226), TMI sheet
[24] = cell line SF-539 (CNS:SF-539), TMI sheet
[25] = cell line SK-MEL-5 (ME:SK-MEL-5), TMI sheet
[26] = cell line SK-MEL-28 (ME:SK-MEL-28), TMI sheet
[27] = cell line SNB-19 (CNS:SNB-19), TMI sheet
[28] = cell line SR (LE:SR), TMI sheet
[29] = cell line SW-620 (CO:SW-620), TMI sheet
[30] = cell line T-47D (BR:T-47D), TMI sheet
[31] = cell line U251 (CNS:U251), TMI sheet
[32] = cell line UACC-62 (ME:UACC-62), TMI sheet
[33] = cell line UACC-257 (ME:UACC-257), TMI sheet

## COc1cc2cc(C(=O)N3CC(CCl)c4c3cc(OC(=O)N3CCN(C)C5CSSCC53)c3ccccc43)[nH]c2c(OC)c1OC (mixture of isomers) [Me-SS66C-CBI-TMI]
U251, read-out: GI50
  GI50: 140 nM
UACC-62, read-out: GI50
  GI50: 150 nM
UACC-257, read-out: GI50
  GI50: 500 nM
[1]
  NCI-60 screening: Log(GI50): -6.74
  NCI-60 screening: Log(RedIndex): 1.04
[2]
  NCI-60 screening: Log(GI50): -6.78
  NCI-60 screening: Log(RedIndex): 0.98
Cell line BT-549 (BR:BT-549), TMI sheet, read-out: NCI-60 screening: Raw GI50
  GI50: 170 nM
[3]
  NCI-60 screening: Log(GI50): -6.98
  NCI-60 screening: Log(RedIndex): 0.98
[4]
  NCI-60 screening: Log(GI50): -6.48
  NCI-60 screening: Log(RedIndex): 0.62
[5]
  NCI-60 screening: Log(GI50): -6.64
  NCI-60 screening: Log(RedIndex): 0.93
Cell line EKVX (LC:EKVX), TMI sheet, read-out: NCI-60 screening: Raw GI50
  GI50: 230 nM
[6]
  NCI-60 screening: Log(GI50): -6.84
  NCI-60 screening: Log(RedIndex): 1.02
Cell line HCC-2998 (CO:HCC-2998), TMI sheet, read-out: NCI-60 screening: Raw GI50
  GI50: 140 nM
[7]
  NCI-60 screening: Log(GI50): -6.61
  NCI-60 screening: Log(RedIndex): 0.85
Cell line HCT-15 (CO:HCT-15), TMI sheet, read-out: NCI-60 screening: Raw GI50
  GI50: 250 nM
[8]
  NCI-60 screening: Log(GI50): -6.73
  NCI-60 screening: Log(RedIndex): 0.9
[9]
  NCI-60 screening: Log(GI50): -7.28
  NCI-60 screening: Log(RedIndex): 1.16
[10]
  NCI-60 screening: Log(GI50): -6.69
  NCI-60 screening: Log(RedIndex): 0.46
Cell line HOP-62 (LC:HOP-62), TMI sheet, read-out: NCI-60 screening: Raw GI50
  GI50: 200 nM
[11]
  NCI-60 screening: Log(GI50): -6.62
  NCI-60 screening: Log(RedIndex): 1.02
Cell line HOP-92 (LC:HOP-92), TMI sheet, read-out: NCI-60 screening: Raw GI50
  GI50: 240 nM
[12]
  NCI-60 screening: Log(GI50): -6.65
  NCI-60 screening: Log(RedIndex): 0.83
Cell line HT29 (CO:HT29), TMI sheet, read-out: NCI-60 screening: Raw GI50
  GI50: 230 nM
[13]
  NCI-60 screening: Log(GI50): -6.4
  NCI-60 screening: Log(RedIndex): 0.23
[14]
  NCI-60 screening: Log(GI50): -5.96
  NCI-60 screening: Log(RedIndex): 0.27
[15]
  NCI-60 screening: Log(GI50): -6.78
  NCI-60 screening: Log(RedIndex): 0.82
Cell line LOX IMVI (ME:LOX IMVI), TMI sheet, read-out: NCI-60 screening: Raw GI50
  GI50: 170 nM
[16]
  NCI-60 screening: Log(GI50): -6.6
  NCI-60 screening: Log(RedIndex): 0.78
Cell line M14 (ME:M14), TMI sheet, read-out: NCI-60 screening: Raw GI50
  GI50: 250 nM
[17]
  NCI-60 screening: Log(GI50): -6.67
  NCI-60 screening: Log(RedIndex): 0.87
[18]
  NCI-60 screening: Log(GI50): -7.55
  NCI-60 screening: Log(RedIndex): 1.05
Cell line MCF7 (BR:MCF7), TMI sheet, read-out: NCI-60 screening: Raw GI50
  GI50: 28 nM
[19]
  NCI-60 screening: Log(GI50): -6.08
  NCI-60 screening: Log(RedIndex): 0.33
[20]
  NCI-60 screening: Log(GI50): -7.16
  NCI-60 screening: Log(RedIndex): 0.93
[21]
  NCI-60 screening: Log(GI50): -7.34
  NCI-60 screening: Log(RedIndex): 1.02
[22]
  NCI-60 screening: Log(GI50): -5.99
  NCI-60 screening: Log(RedIndex): 0.15
[23]
  NCI-60 screening: Log(GI50): -6.79
  NCI-60 screening: Log(RedIndex): 0.96
Cell line RPMI-8226 (LE:RPMI-8226), TMI sheet, read-out: NCI-60 screening: Raw GI50
  GI50: 160 nM
Cell line SF-268 (CNS:SF-268), TMI sheet
  NCI-60 screening: Log(GI50): -6.76
Cell line SF-268 (CNS:SF-268), TMI sheet, read-out: NCI-60 screening: Raw GI50
  GI50: 170 nM
Cell line SF-295 (CNS:SF-295), TMI sheet
  NCI-60 screening: Log(GI50): -6.88
Cell line SF-295 (CNS:SF-295), TMI sheet, read-out: NCI-60 screening: Raw GI50
  GI50: 130 nM
[24]
  NCI-60 screening: Log(GI50): -6.76
  NCI-60 screening: Log(RedIndex): 0.88
Cell line SF-539 (CNS:SF-539), TMI sheet, read-out: NCI-60 screening: Raw GI50
  GI50: 170 nM
[25]
  NCI-60 screening: Log(GI50): -6.78
  NCI-60 screening: Log(RedIndex): 0.99
Cell line SK-MEL-5 (ME:SK-MEL-5), TMI sheet, read-out: NCI-60 screening: Raw GI50
  GI50: 170 nM
[26]
  NCI-60 screening: Log(GI50): -6.58
  NCI-60 screening: Log(RedIndex): 1.14
Cell line SK-MEL-28 (ME:SK-MEL-28), TMI sheet, read-out: NCI-60 screening: Raw GI50
  GI50: 260 nM
[27]
  NCI-60 screening: Log(GI50): -6.65
  NCI-60 screening: Log(RedIndex): 1
[28]
  NCI-60 screening: Log(GI50): -7.43
  NCI-60 screening: Log(RedIndex): 0.87
[29]
  NCI-60 screening: Log(GI50): -6.58
  NCI-60 screening: Log(RedIndex): 0.85
Cell line SW-620 (CO:SW-620), TMI sheet, read-out: NCI-60 screening: Raw GI50
  GI50: 260 nM
[30]
  NCI-60 screening: Log(GI50): -6.54
  NCI-60 screening: Log(RedIndex): 0.82
[31]
  NCI-60 screening: Log(GI50): -6.86
  NCI-60 screening: Log(RedIndex): 1.04
Cell line U251 (CNS:U251), TMI sheet, read-out: NCI-60 screening: Raw GI50
  GI50: 140 nM
[32]
  NCI-60 screening: Log(GI50): -6.83
  NCI-60 screening: Log(RedIndex): 1.02
Cell line UACC-62 (ME:UACC-62), TMI sheet, read-out: NCI-60 screening: Raw GI50
  GI50: 150 nM
[33]
  NCI-60 screening: Log(GI50): -6.3
  NCI-60 screening: Log(RedIndex): 0.6
Mean over NCI cell lines, vs P-CC60
  mean reductive index: ca. 7
read-out: NCI-60 screening: Raw GI50
  GI50: 240 nM
